Source: article PMC7750480, “A hybrid approach reveals the allosteric regulation of GTP cyclohydrolase I” (Proceedings of the National Academy of Sciences of the …, 2020)
Numbering of substitutions follows the chain as printed.

Tests used:
[1] = target: T1, GCH1 (Homo sapiens, UniProt P30793); assay: functional assay with 1H-NMR detection of formate; assay type: biochemical
T1 construct: The hGCH1 (42-250, N-terminal 6xHis Tag and TEV cleavage site); 6xHis (N); TEV cleavage site (N); made in house; host or cells: E. coli BL21(DE3)
T1 sequence (P30793 42-250): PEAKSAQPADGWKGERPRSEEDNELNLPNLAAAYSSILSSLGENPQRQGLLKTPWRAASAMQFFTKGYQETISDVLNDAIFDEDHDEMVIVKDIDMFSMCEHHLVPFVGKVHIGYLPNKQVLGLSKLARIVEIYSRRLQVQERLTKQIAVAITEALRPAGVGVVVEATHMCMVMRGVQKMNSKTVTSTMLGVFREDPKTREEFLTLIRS
Experimental: For the functional assay, each NMR sample was prepared with 10 μM GCH1 and 170 μM or 600 μM test compound. The PBS NMR buffer additionally contained 300 μM GTP (Cayman Chemical cat. no. 16060). After a reaction time of 45 min (25 °C), a certain amount of substrate molecules (GTP) has been converted by GCH1 into 7,8-Dihydroneopterin (H2NPT) and the by-product formate (deprotonated formic acid). For product detection, a WATERGATE 1H-NMR spectrum was recorded (128 scans). We used the integrated NMR signal of the formate α-proton at 8.33 ppm as a relative enzyme activity readout. The formate integral of a negative control sample (dimethyl sulfoxide) has been set to 100%. An inhibitory active test compound decreases the GTP turnover and leads to a reduced relative formate signal integral (% inhibition). DAHP was used as a positive control.
(§1) Supplemental Figure 6: Detection of product formation and STD NMR assay. A) Enzyme activity assay for GCH1 based on colorimetric detection of H2NTP or 1H-NMR detection of formate. […]
(§2) inhibitor (e.g. BH4). B) STD NMR is capable to detect GTP binding (green). Addition of another active site binder (8-oxo […]
STD NMR enhancement of substrate GTP in the presence of allosteric regulator BH4 (red). This screening assay allows for the identification of allosteric binders. […]

[2] = target: T2, GCH1 WT (Homo sapiens, UniProt P30793); assay: enzyme kinetics, H2NTP formation at 330 nm, WT GCH1; assay type: biochemical; conditions: colorimetric detection of H2NTP
T2 construct: The hGCH1 (42-250, N-terminal 6xHis Tag and TEV cleavage site); 6xHis (N); TEV cleavage site (N); made in house; host or cells: E. coli BL21(DE3)
T2 sequence (P30793 42-250): T1 sequence (P30793 42-250)
Experimental: (§3) In order to test the role of the key residues H126, D127, E128, R235, and R241 involved in allosteric inhibitor binding and conformational change, various point mutants were prepared and tested for their ability to be stimulated and inhibited by effector molecules in the presence or absence of GFRP. […] Enzyme activity was evaluated using an activity assay measuring the formation of the product H2NTP at 330 nm with increasing GTP concentrations.
(§4) GTPCH-I specific enzyme activity was determined by spectrometric measuring of the concentration of its direct product H2NTP. Synergy H1 (BioTek Instruments) and Gen5 2.01 software were used to evaluate H2NTP concentration and the maximal turnover rate (Vmax) within each measuring interval. H2NTP concentration was measured at 330 nm over a measuring period of 2 h using a measuring interval of 2 min to 4 min at 37 °C. Samples were prepared using 2 μM GTPCH-I, varying concentrations of GTP (1 μM to 2,000 µM) and in the absence or presence of 15 mM phenylalanine, 0.1 mM BH4, or 3 μM GFRP. The assay buffer used was 50 mM Tris/HCl, pH 7.5, 100 mM KCl. The specific enzyme activity (A) was calculated using the path length of 0.15 cm and the extinction coefficient […] = 6,300 M^−1⋅cm^−1 H2NTP. […] All enzymatic data were, at least, measured in triplicate (n = 3).

[3] = target: T3, R241A-GCH1 (Homo sapiens, UniProt P30793, R241A); assay: enzyme kinetics, H2NTP formation at 330 nm, R241A-GCH1; assay type: biochemical; conditions: in the absence and presence of GFRP; 0.1 mM BH4
T3 construct: The hGCH1 (42-250, N-terminal 6xHis Tag and TEV cleavage site); 6xHis (N); TEV cleavage site (N); made in house; host or cells: E. coli BL21(DE3)
T3 sequence (P30793 42-250 R241A): T1 sequence (P30793 42-250) with R200A
Experimental: as §3, §4

[4] = target: T4, R235A-GCH1 (Homo sapiens, UniProt P30793, R235A); assay: enzyme kinetics, H2NTP formation at 330 nm, R235A-GCH1; assay type: biochemical; conditions: in the absence and presence of GFRP; 0.1 mM BH4
T4 construct: The hGCH1 (42-250, N-terminal 6xHis Tag and TEV cleavage site); 6xHis (N); TEV cleavage site (N); made in house; host or cells: E. coli BL21(DE3)
T4 sequence (P30793 42-250 R235A): T1 sequence (P30793 42-250) with R194A
Experimental: as §3, §4

[5] = target: T1, GCH1; assay: STD NMR assay with active site reporter ligand GTP; assay type: binding; conditions: in the presence of allosteric regulator
Description: as §1, §2
STD NMR enhancement of substrate GTP in the presence of allosteric regulator BH4 (red). This screening assay allows for the identification of allosteric binders. C) Correlation of activity in functional NMR assay and STD NMR enhancement of active site reporter ligand GTP.
(1 picture or pasted object on this page, not shown here)

[6] = target: T2, GCH1 WT; assay: differential scanning fluorimetry (DSF), WT GCH1; assay type: binding; conditions: protein melting point in presence of GTP
Experimental: (§5) The Tm of proteins and protein complexes was determined by DSF using the Thermofluor Bio-Rad CFX384 and the Bio-Rad CFX Manager software. Ten micromolar protein solution was equipped with 5× SYPRO Orange Protein Gel Stain (Invitrogen) reaching a total volume of 10 μL. Effector molecules and GFRP were added in different concentrations to test their influence on thermal stability; 384 well plates were heated up using a temperature ramp from 15 °C to 95 °C in 1 °C/min steps.

[7] = target: T5, GCH1 F122A (Homo sapiens, UniProt P30793, F122A); assay: differential scanning fluorimetry (DSF), F122A; assay type: binding
T5 construct: The hGCH1 (42-250, N-terminal 6xHis Tag and TEV cleavage site); 6xHis (N); TEV cleavage site (N); made in house; host or cells: E. coli BL21(DE3)
T5 sequence (P30793 42-250 F122A): T1 sequence (P30793 42-250) with F81A
Experimental: as §5

[8] = target: T6, GCH1 R235A (Homo sapiens, UniProt P30793, R235A); assay: differential scanning fluorimetry (DSF), R235A; assay type: binding
T6 construct: The hGCH1 (42-250, N-terminal 6xHis Tag and TEV cleavage site); 6xHis (N); TEV cleavage site (N); made in house; host or cells: E. coli BL21(DE3)
T6 sequence (P30793 42-250 R235A): T1 sequence (P30793 42-250) with R194A
Experimental: as §5

[9] = target: T7, GCH1 D127A (Homo sapiens, UniProt P30793, D127A); assay: differential scanning fluorimetry (DSF), D127A; assay type: binding
T7 construct: The hGCH1 (42-250, N-terminal 6xHis Tag and TEV cleavage site); 6xHis (N); TEV cleavage site (N); made in house; host or cells: E. coli BL21(DE3)
T7 sequence (P30793 42-250 D127A): T1 sequence (P30793 42-250) with D86A
Experimental: as §5

[10] = target: T8, GCH1 E128A (Homo sapiens, UniProt P30793, E128A); assay: differential scanning fluorimetry (DSF), E128A; assay type: binding; conditions: protein melting point in presence of GTP
T8 construct: The hGCH1 (42-250, N-terminal 6xHis Tag and TEV cleavage site); 6xHis (N); TEV cleavage site (N); made in house; host or cells: E. coli BL21(DE3)
T8 sequence (P30793 42-250 E128A): T1 sequence (P30793 42-250) with E87A
Experimental: as §5

[11] = target: T9, GCH1 H126A (Homo sapiens, UniProt P30793, H126A); assay: differential scanning fluorimetry (DSF), H126A; assay type: binding
T9 construct: The hGCH1 (42-250, N-terminal 6xHis Tag and TEV cleavage site); 6xHis (N); TEV cleavage site (N); made in house; host or cells: E. coli BL21(DE3)
T9 sequence (P30793 42-250 H126A): T1 sequence (P30793 42-250) with H85A
Experimental: as §5

[12] = target: T10, GCH1 R241A (Homo sapiens, UniProt P30793, R241A); assay: differential scanning fluorimetry (DSF), R241A; assay type: binding
T10 construct: The hGCH1 (42-250, N-terminal 6xHis Tag and TEV cleavage site); 6xHis (N); TEV cleavage site (N); made in house; host or cells: E. coli BL21(DE3)
T10 sequence (P30793 42-250 R241A): T1 sequence (P30793 42-250) with R200A
Experimental: as §5

[13] = protein melting point in presence of GTP
[14] = shift of melting point with GTP

SMILES	formate production in presence of inhibitor [1]	H2NTP production in presence of inhibitor [2]	inhibition of enzyme activity by BH4 [3]	inhibition of enzyme activity by BH4 [4]	effect on STD NMR signal of substrate GTP (allosteric regulator) [5]	TM + GTP [6]	TM + GTP [7, 13]	ΔTM WT+GTP [7, 14]	TM + GTP [8, 13]	ΔTM WT+GTP [8, 14]	TM + GTP [9, 13]	ΔTM WT+GTP [9, 14]	TM + GTP [10]	TM + GTP [11, 13]	ΔTM WT+GTP [11, 14]	TM + GTP [12, 13]	ΔTM WT+GTP [12, 14]
C[C@H](O)[C@H](O)[C@H]1CNc2nc(N)[nH]c(=O)c2N1 [BH4, tetrahydrobiopterin]	No H2NTP or formate is produced	No H2NTP or formate is produced	cannot be inhibited	cannot be inhibited	enhancement												
Nc1nc2c(ncn2[C@@H]2O[C@H](COP(=O)(O)OP(=O)(O)OP(=O)(O)O)[C@@H](O)[C@H]2O)c(=O)[nH]1 [GTP, Guanosine triphosphate]						83.2 °C	75.2 °C	4.2 °C	81.2 °C	11.2 °C	78.0 °C	5.0 °C	78.5 °C	80.0 °C	6.0 °C	86.2 °C	17.7 °C
